From patent US12545748B2, “Water-soluble 1,3-diphenylguanidine (DPG)-based supramolecular inclusion complex and preparation method and use thereof” (YANGZHOU UNIVERSITY, priority 2021, dated 2026)
Values after ≈ are worked out from the molar mass of the structure shown. Read-outs that look alike come from different tables or passages of the source.

Tests used:
[1] = Thermogravimetric analysis (thermal stability); format: physicochemical
Method: Taking Examples 2 and 4 as examples, the thermal stability of DPG raw materials, HP-β-CD, β-CDP and their respective inclusion complexes were analyzed by thermogravimetric analysis, and the results were shown in FIG. 4.

[2] = Solubilization experiment by ultraviolet-visible spectra (244 nm); settings: water, thermodynamic from solid
From the text: Taking Examples 2 and 4 as examples, the solubilization effect was verified by comparing and analyzing absorption peaks of ultraviolet-visible spectra of the DPG raw material, the DPG-β-CDP inclusion complex, and the DPG-HP-β-CD inclusion complex. The results were shown in FIG. 5, β-CDP and HP-β-CD had no ultraviolet absorption peaks.

[3] = in water at 25° C.; cited from earlier work
[4] = format: physicochemical
Method: 1. Determination of Inclusion Ratio and Inclusion Constant of Inclusion Complex by Ultraviolet-Visible Spectroscopy
According to a Benesi-Hildebrand method (J. Am. Chem. Soc. 1949, 71, 8, 2703-2707), it was obtained that: at 25° C., the complexation stability constants of HP-β-CD and β-CDP with DPG were 26.87 L/mol and 27.88 L/mol, respectively.

Molecule	second decomposition (temperature) [1]	began to decompose (temperature) ([1]; first decomposition)	solubility [2]	solubility [3]	complexation stability constant with DPG [4]
N=C(Nc1ccccc1)Nc1ccccc1 [DPG, 1,3-diphenylguanidine]	256 °C	166 °C	315 µg/mL (≈ 1490 µM)	about 315 mg/L	–
hydroxypropyl-ß-cyclodextrin [HP-β-CD]	–	–	–	–	26.87 L/mol
β-cyclodextrin polymer [β-CDP]	–	–	–	–	27.88 L/mol
